This test in a line: Inhibition Assay: LOX and LOXL2: Lysyl oxidase (LOX) is an extracellular copper dependent enzyme which oxidizes peptidyl lysine and hydroxylysine residues in collagen and lysine residues in elastin to produce peptidyl alpha-aminoadipic-delta-semialdehydes. […] There are five LOX family members; these are LOX, LOXL1, LOXL2, LOXL3 and LOXL4. LOX and LOXL family members can be acquired as recombinant active proteins from commercial sources, or extracted from animal tissues like bovine aorta, tendons, pig skin; or prepared from cell cultures. The inhibitory effects of the compounds of the present invention were tested against the given LOX-LOXL preparation using a high-throughput coupled colorimetric method (Holt A. and Palcic M., A peroxidase-coupled continuous absorbance plate-reader assay for flavin monoamine oxidases, copper-containing amine oxidases and related enzymes. Nat. Protoc. 2006; 1: 2498-2505). The assay was developed using either 384 or 96 well format. Briefly, in a standard 384 well plate assay 25 μL of a dilution of any of the isoenzymes and orthologues in 1.2 M urea, 50 mM sodium borate buffer (pH 8.2) were added into each well in the presence of 1 μM mofegiline and 0.5 mM pargyline (to inhibit SSAO and MAO-B and MAO-A, respectively). […].

Consider two molecules from ChEMBL document CHEMBL5727850, “Haloallylamine indole and azaindole derivative inhibitors of lysyl oxidases and uses thereof” (2020).

pIC50: −log10 of the molar value. Some results are limits rather than exact numbers.

Consider `Cc1c(-c2cccc(S(=O)(=O)N(C)C)c2)c2nc(C(=O)N(C)C)ccc2n1C/C(F)=C/CN`, for which the pIC50 was under 6.52.

Consider `Cc1c(-c2cccc(S(=O)(=O)N(C)C)c2)c2cc(C(=O)N(C)C)ccc2n1C/C(F)=C/CN`, for which the pIC50 was under 6.52.
